Measured values reported in article PMC7031696 (Cell chemical biology, 2019).
Values after ≈ are worked out from the molar mass of the structure shown. Where two headings read alike, the source gives them in different places.

What was measured:
[1] = test system: asynchronous 3D7-A10 parasite cultures; test: Standard 72-h exposure asexual blood stage susceptibility assay (IC50^72h); type: cell-based, Plasmodium falciparum; settings: Plasmodium falciparum, 3D7, 72 h, read-out: Overall (72hr assay) Mean IC50 (IC50^72h)
[2] = 1.5 h, 500 μM, pH 7.4
[3] = physchem
[4] = test system: 3D7-MR4 trophozoite parasite-infected RBCs; test: Metabolomic profiling (hydrophilic metabolite changes, UHPLC-MS); type: cell-based, Plasmodium falciparum
[5] = test system: Plasmodium falciparum 3D7-A10 parasites; test: Stage specificity assay (8-h exposure of synchronized stages, IC50^8h); type: cell-based; settings: for IC50: Plasmodium falciparum

Cc1cc(Nc2ccc(OCc3ccccc3)cc2)nc2cc(O)ccc12 [MMV007181]
IC50 [1]: 0.0849 µM
Ratio fil./std. (absorbance filtrate/standard) [2]: 0.69
solubility at 1.5 h ([3]; pH 7.4): > 100 µM
solubility at 1.5 h ([3]; pH 7.4, aqueous buffer, kinetic from dmso stock): 100 to 500 µM (≈ 35.6 to 178 µg/mL)
peptide levels (hemoglobin catabolism signature) ([4]; 10 × IC50^72h, 2.5 hr, trophozoites): decreased peptide levels
Log2(fold changes) 3-phosphoglycerate ([4]; metabolite 3-phosphoglycerate, log2 fold change): -0.1714
Log2(fold changes) 4-Pyridoxic acid ([4]; metabolite 4-Pyridoxic acid, log2 fold change): -0.2247
Log2(fold changes) 4-aminobutyrate ([4]; metabolite 4-aminobutyrate, log2 fold change): -0.0986
Log2(fold changes) 4-phosphopantetheine ([4]; metabolite 4-phosphopantetheine, log2 fold change): 0.6961
Log2(fold changes) 4-phosphopantothenate ([4]; metabolite 4-phosphopantothenate, log2 fold change): -0.6638
Log2(fold changes) 5-aminopentanoic acid ([4]; metabolite 5-aminopentanoic acid, log2 fold change): -0.2294
Log2(fold changes) 5-methyl-THF ([4]; metabolite 5-methyl-THF, log2 fold change): 0.0000
Log2(fold changes) 5-phosphoribosyl-1-pyrophosphate ([4]; metabolite 5-phosphoribosyl-1-pyrophosphate, log2 fold change): 0.0000
Log2(fold changes) 6-phospho-D-gluconate ([4]; metabolite 6-phospho-D-gluconate, log2 fold change): -0.1453
Log2(fold change) HVDD ([4]; metabolite HVDD): -4.4739
Log2(fold change) Hydroxyisocaproic acid ([4]; metabolite Hydroxyisocaproic acid): 0.0000
Log2(fold change) IDP ([4]; metabolite IDP): -0.0045
Log2(fold change) IMP ([4]; metabolite IMP): -0.1201
Log2(fold change) Inositol ([4]; metabolite Inositol): 0.0000
Log2(fold change) Isopentyl-PP ([4]; metabolite Isopentyl-PP): -0.4346
Log2(fold change) L-arginino-succinate ([4]; metabolite L-arginino-succinate): -0.6665
Log2(fold change) LD ([4]; metabolite LD): -0.1484
Log2(fold change) Myristoyl/tetradecanoyl-CoA ([4]; metabolite Myristoyl/tetradecanoyl-CoA): 0.0000
Log2(fold change) N-Acetyl-L-alanine ([4]; metabolite N-Acetyl-L-alanine): -0.3632
Log2(fold change) N-acetyl-L-ornithine ([4]; metabolite N-acetyl-L-ornithine): -2.0310
Log2(fold change) N-acetyl-glucosamine-1/6-phosphate ([4]; metabolite N-acetyl-glucosamine-1/6-phosphate): -0.0060
Log2(fold change) N-acetyl-glutamate ([4]; metabolite N-acetyl-glutamate): 0.1987
Log2(fold change) N-acetyl-glutamine ([4]; metabolite N-acetyl-glutamine): 0.1663
Log2(fold change) N-carbamoyl-L-aspartate ([4]; metabolite N-carbamoyl-L-aspartate): -0.1286
Log2(fold change) NAD+ ([4]; metabolite NAD+): -0.1335
Log2(fold change) NADH ([4]; metabolite NADH): 2.9716
Log2(fold change) NADP+ ([4]; metabolite NADP+): -0.2177
Log2(fold change) NADPH ([4]; metabolite NADPH): 2.7260
Log2(fold change) O-acetyl-L-serine ([4]; metabolite O-acetyl-L-serine): -0.0650
Log2(fold change) Octoluse 8/1P ([4]; metabolite Octoluse 8/1P): -0.2583
Log2(fold change) Octoluse Bisphosphate ([4]; metabolite Octoluse Bisphosphate): -0.7020
Log2(fold change) PD ([4]; metabolite PD): -3.3017
Log2(fold change) PE ([4]; metabolite PE): -2.9801
Log2(fold change) PEE ([4]; metabolite PEE): -2.9268
Log2(fold change) PEEK ([4]; metabolite PEEK): -4.7351
Log2(fold change) PVNF ([4]; metabolite PVNF): -4.5493
Log2(fold change) Pyroglutamic acid ([4]; metabolite Pyroglutamic acid): 0.2482
Log2(fold change) Pyrophosphate ([4]; metabolite Pyrophosphate): 0.0000
Log2(fold change) Ribose-5-phosphate ([4]; metabolite Ribose-5-phosphate): -0.4059
Log2(fold change) S-adenosyl-L-homocysteine ([4]; metabolite S-adenosyl-L-homocysteine): -0.1192
Log2(fold change) S-adenosyl-L-methioninamine ([4]; metabolite S-adenosyl-L-methioninamine): -3.2130
Log2(fold change) S-adenosyl-L-methionine ([4]; metabolite S-adenosyl-L-methionine): -0.1206
Log2(fold change) S-methyl-5'-thioadenosine ([4]; metabolite S-methyl-5'-thioadenosine): 0.4702
Log2(fold change) SD ([4]; metabolite SD): -0.6167
Log2(fold change) SDL ([4]; metabolite SDL): 0.0000
Log2(fold change) SID ([4]; metabolite SID): -0.9911
Log2(fold change) Sedoheptulose bisphosphate ([4]; metabolite Sedoheptulose bisphosphate): -0.4907
Log2(fold change) Thiamine pyrophosphate ([4]; metabolite Thiamine pyrophosphate): -0.0717
Log2(fold changes) UDP-D-glucose ([4]; metabolite UDP-D-glucose, log2 fold change): 0.0982
Log2(fold changes) UDP-D-glucuronate ([4]; metabolite UDP-D-glucuronate, log2 fold change): -0.0548
Log2(fold changes) UDP-N-acetyl-glucosamine ([4]; metabolite UDP-N-acetyl-glucosamine, log2 fold change): -0.0365
Log2(fold changes) UDP ([4]; metabolite UDP, log2 fold change): -0.2952
Log2(fold changes) UMP ([4]; metabolite UMP, log2 fold change): -0.1123
Log2(fold changes) UTP ([4]; metabolite UTP, log2 fold change): -0.0747
Log2(fold change) hydroxyphenylpyruvate ([4]; metabolite hydroxyphenylpyruvate): 0.0000
Log2(fold change) hydroxyproline/Aminolevulinate ([4]; metabolite hydroxyproline/Aminolevulinate): -0.1078
Log2(fold change) hypoxanthine ([4]; metabolite hypoxanthine): 0.1087
Log2(fold change) indole ([4]; metabolite indole): -0.0870
Log2(fold change) inosine ([4]; metabolite inosine): -0.1121
Log2(fold change) isoleucine ([4]; metabolite isoleucine): 0.0000
Log2(fold change) lactate ([4]; metabolite lactate): -0.3282
Log2(fold change) leucine ([4]; metabolite leucine): -0.3120
Log2(fold change) lysine ([4]; metabolite lysine): -2.3197
Log2(fold change) malate ([4]; metabolite malate): -0.7445
Log2(fold change) maleic acid ([4]; metabolite maleic acid): -0.7914
Log2(fold change) methionine ([4]; metabolite methionine): 0.1152
Log2(fold change) myo-inositol ([4]; metabolite myo-inositol): -0.3555
Log2(fold change) nicotinamide mononucleotide ([4]; metabolite nicotinamide mononucleotide): -0.2883
Log2(fold change) nicotinate ([4]; metabolite nicotinate): 0.1126
Log2(fold change) ornithine ([4]; metabolite ornithine): -0.1929
Log2(fold change) orotate ([4]; metabolite orotate): -0.4250
Log2(fold change) orotidine-5'-phosphate ([4]; metabolite orotidine-5'-phosphate): -1.5378
Log2(fold change) oxaloacetate ([4]; metabolite oxaloacetate): -0.5706
Log2(fold change) p-aminobenzoate ([4]; metabolite p-aminobenzoate): 0.0000
Log2(fold change) p-hydroxybenzoate ([4]; metabolite p-hydroxybenzoate): 0.0981
Log2(fold change) pantothenate ([4]; metabolite pantothenate): 0.1598
Log2(fold change) phenylalanine ([4]; metabolite phenylalanine): -0.4038
Log2(fold change) phenylpyruvate ([4]; metabolite phenylpyruvate): 0.0000
Log2(fold change) phosphoenolpyruvate ([4]; metabolite phosphoenolpyruvate): 0.0294
Log2(fold change) prephenate ([4]; metabolite prephenate): -0.1912
Log2(fold change) proline ([4]; metabolite proline): -0.4365
Log2(fold change) pyridoxine ([4]; metabolite pyridoxine): -0.1437
Log2(fold change) pyruvate ([4]; metabolite pyruvate): -0.7096
Log2(fold change) riboflavin ([4]; metabolite riboflavin): 0.3011
Log2(fold change) ribose ([4]; metabolite ribose): -0.0087
Log2(fold change) ribose-phosphate ([4]; metabolite ribose-phosphate): -0.7988
Log2(fold change) ribulose-5-phosphate ([4]; metabolite ribulose-5-phosphate): -0.4319
Log2(fold change) serine ([4]; metabolite serine): -0.2012
Log2(fold change) sn-glycerol-3-phosphate ([4]; metabolite sn-glycerol-3-phosphate): 0.0673
Log2(fold change) succinate/Methylmalonic acid ([4]; metabolite succinate/Methylmalonic acid): -0.1908
Log2(fold change) succinyl-CoA/methylmalonyl-CoA ([4]; metabolite succinyl-CoA/methylmalonyl-CoA): 0.0000
Log2(fold change) taurine ([4]; metabolite taurine): 0.0434
Log2(fold change) thiamine ([4]; metabolite thiamine): -0.2929
Log2(fold change) threonine/homoserine ([4]; metabolite threonine/homoserine): -0.5619
Log2(fold change) thymidine ([4]; metabolite thymidine): 0.0000
Log2(fold changes) thymine ([4]; metabolite thymine, log2 fold change): 0.0000
Log2(fold changes) trehalose-6-Phosphate ([4]; metabolite trehalose-6-Phosphate, log2 fold change): 0.0000
Log2(fold changes) tryptophan ([4]; metabolite tryptophan, log2 fold change): -0.4056
Log2(fold changes) tyrosine ([4]; metabolite tyrosine, log2 fold change): -0.2656
Log2(fold changes) uridine ([4]; metabolite uridine, log2 fold change): 0.0000
Ratio lowest IC50 8hr/IC50 72hr ([5]; 3D7-A10): 3.0
killing in stage specificity assay ([5]; 8-h exposures, survival curves): incomplete killing at all asexual blood stages
IC50 ([5]; 3D7, read-out: Early rings IC50 (IC50^8h), 8-h exposure 0–8 hr, bound given in μM): > 25 µM
IC50 ([5]; 3D7, read-out: Early trophozoites Mean IC50 (IC50^8h), 8-h exposure 16–24 hr, 3D7-A10, survival at 60 h): 0.253 µM
IC50 ([5]; 3D7, read-out: Late rings IC50 (IC50^8h), 8-h exposure 8–16 hr, bound given in μM): > 25 µM
IC50 ([5]; 3D7, read-out: Late trophozoites Mean IC50 (IC50^8h), 8-h exposure 24–32 hr, 3D7-A10, survival at 60 h): 0.274 µM
IC50 ([5]; 3D7, read-out: Schizonts Mean IC50 (IC50^8h), 8-h exposure 32–40 hr, 3D7-A10, survival at 60 h): 0.57 µM
Stage of peak activity (Figure 6) ([5]; period when the parasite was most susceptible (lowest IC50^8h)): trophozoites
Peak Activity (Table S1) ([5]; stage(s) with the lowest IC50^8h): Trophs
